Laboratory results as given in ChEMBL document CHEMBL1138864, “Synthesis of novel caspase inhibitors for characterization of the active caspase proteome in vitro and in vivo” (J Med Chem, 2006).

Key:
Caspase-1 = biological target: T1, Caspase-1 (Homo sapiens, UniProt P29466); assay: Inhibition of human caspase 1
T1 sequence (P29466 whole entry): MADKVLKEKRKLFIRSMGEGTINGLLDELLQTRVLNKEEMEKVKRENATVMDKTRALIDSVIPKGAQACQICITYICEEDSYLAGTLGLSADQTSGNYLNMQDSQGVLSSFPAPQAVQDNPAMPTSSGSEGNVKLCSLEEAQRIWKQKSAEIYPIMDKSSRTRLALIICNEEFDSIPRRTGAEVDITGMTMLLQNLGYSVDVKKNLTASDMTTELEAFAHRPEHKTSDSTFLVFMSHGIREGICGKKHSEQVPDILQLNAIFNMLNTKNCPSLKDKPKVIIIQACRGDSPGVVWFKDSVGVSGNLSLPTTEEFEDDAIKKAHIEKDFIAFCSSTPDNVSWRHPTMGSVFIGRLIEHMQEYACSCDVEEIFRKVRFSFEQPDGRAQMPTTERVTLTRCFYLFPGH

Caspase-2 = biological target: T2, Caspase-2 (Homo sapiens, UniProt P42575); assay: Inhibition of human caspase 2
T2 sequence (P42575 whole entry): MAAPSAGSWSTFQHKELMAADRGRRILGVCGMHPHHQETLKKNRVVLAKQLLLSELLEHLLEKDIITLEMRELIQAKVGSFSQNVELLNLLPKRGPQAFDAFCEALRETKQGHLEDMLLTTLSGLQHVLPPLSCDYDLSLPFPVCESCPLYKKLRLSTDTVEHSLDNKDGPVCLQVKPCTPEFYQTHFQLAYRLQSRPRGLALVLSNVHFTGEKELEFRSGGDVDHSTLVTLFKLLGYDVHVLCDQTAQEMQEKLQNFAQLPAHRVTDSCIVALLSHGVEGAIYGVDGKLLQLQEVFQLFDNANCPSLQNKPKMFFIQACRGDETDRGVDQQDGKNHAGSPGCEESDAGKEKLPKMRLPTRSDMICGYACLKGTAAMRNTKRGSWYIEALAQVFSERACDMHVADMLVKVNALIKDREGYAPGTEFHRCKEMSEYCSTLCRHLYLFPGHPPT

Caspase-3 = biological target: T3, Caspase-3 (Homo sapiens, UniProt P42574); assay: Inhibition of human caspase 3
T3 sequence (P42574 whole entry): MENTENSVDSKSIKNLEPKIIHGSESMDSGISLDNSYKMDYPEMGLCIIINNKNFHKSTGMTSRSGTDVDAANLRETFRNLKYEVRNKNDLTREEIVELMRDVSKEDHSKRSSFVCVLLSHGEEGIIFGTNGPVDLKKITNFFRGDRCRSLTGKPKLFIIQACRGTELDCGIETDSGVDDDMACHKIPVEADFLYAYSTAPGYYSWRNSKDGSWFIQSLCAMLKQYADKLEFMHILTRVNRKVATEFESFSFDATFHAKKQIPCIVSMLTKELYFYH

Caspase-6 = biological target: T4, Caspase-6 (Homo sapiens, UniProt P55212); assay: Inhibition of human caspase 6
T4 sequence (P55212 whole entry): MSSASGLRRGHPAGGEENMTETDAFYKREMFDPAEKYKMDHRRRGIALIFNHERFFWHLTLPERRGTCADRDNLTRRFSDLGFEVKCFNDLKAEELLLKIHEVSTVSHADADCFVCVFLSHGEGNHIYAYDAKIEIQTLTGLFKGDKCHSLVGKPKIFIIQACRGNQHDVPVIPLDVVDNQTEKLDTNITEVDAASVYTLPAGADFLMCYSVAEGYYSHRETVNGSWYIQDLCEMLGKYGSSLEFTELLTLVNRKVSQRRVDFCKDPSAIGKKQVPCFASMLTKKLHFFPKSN

Caspase-7 = biological target: T5, Caspase-7 (Homo sapiens, UniProt P55210); assay: Inhibition of human caspase 7
T5 sequence (P55210 whole entry): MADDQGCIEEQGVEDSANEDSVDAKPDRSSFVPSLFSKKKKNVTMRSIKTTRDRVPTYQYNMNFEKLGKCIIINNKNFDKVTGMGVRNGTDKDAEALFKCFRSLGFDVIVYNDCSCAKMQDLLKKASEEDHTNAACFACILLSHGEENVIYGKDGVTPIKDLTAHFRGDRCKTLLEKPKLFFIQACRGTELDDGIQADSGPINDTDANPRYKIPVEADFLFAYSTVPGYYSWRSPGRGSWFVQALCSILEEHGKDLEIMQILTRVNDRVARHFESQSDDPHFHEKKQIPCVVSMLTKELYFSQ

Caspase-8 = Caspase-8 (Homo sapiens, UniProt Q14790); assay: Inhibition of human caspase 8
Chain of Caspase-8 (Q14790 217-374 limits assumed): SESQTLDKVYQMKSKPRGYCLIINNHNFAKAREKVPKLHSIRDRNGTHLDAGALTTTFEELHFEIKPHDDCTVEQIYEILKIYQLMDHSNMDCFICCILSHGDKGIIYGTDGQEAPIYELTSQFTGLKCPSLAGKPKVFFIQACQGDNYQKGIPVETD
Chain of Caspase-8 (Q14790 385-479 limits assumed): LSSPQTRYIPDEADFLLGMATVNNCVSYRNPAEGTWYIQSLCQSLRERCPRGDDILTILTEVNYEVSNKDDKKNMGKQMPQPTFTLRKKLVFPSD

Ki (Caspase-1): 6.3 nM
Ki (Caspase-2): 29000 nM
Ki (Caspase-3): 840 nM
Ki (Caspase-6): 550000 nM
Ki (Caspase-7): 1200 nM
Ki (Caspase-8): 540 nM
SMILES: Cc1cccc(C)c1C(=O)OCC(=O)[C@H](CC(=O)O)NC(=O)[C@H](CCCCNC(=O)CCCCCNC(=O)CCCCC1SC[C@@H]2NC(=O)N[C@H]12)NC(=O)[C@H](CCC(=O)O)NC(=O)OCc1ccccc1 (stereo partly specified)
